Experimental data reported in ChEMBL document CHEMBL5532750, “Small molecule targeted therapies for endometrial cancer: progress, challenges, and opportunities” (RSC Med Chem, 2024).

Tests used:
Ishikawa [1] = test: Anticancer activity against human Ishikawa cells assessed as cell mortality rate at 600 uM measured after 48 hrs by MTT assay relative to control; type: functional
Ishikawa [2] = test: Anticancer activity against human Ishikawa cells assessed as cell mortality rate at 100 uM measured after 48 hrs by MTT assay relative to control; type: functional
Ishikawa [3] = test: Anticancer activity against human Ishikawa cells assessed as cell mortality rate at 100 uM measured after 24 hrs by MTT assay relative to control; type: functional
Ishikawa [4] = test: Antiproliferative activity against human Ishikawa cells assessed as inhibition of VEGF secretion measured after 24 hrs by ELISA assay; type: functional, cell-based
Ishikawa [5] = test: Antiproliferative activity against human Ishikawa cells assessed as reduction in cell viability; type: functional, cell-based
Ishikawa [6] = test: Antiproliferative activity against human Ishikawa cells assessed as combination index at 0.5 mM incubated for 48 hrs in presence of paclitaxel by MTT assay; type: functional
ECC-1 [7] = test: Antiproliferative activity against human ECC-1 cells assessed as combination index at 0.5 mM incubated for 48 hrs in presence of paclitaxel by MTT assay; type: functional
HEC-1B cell line [8] = test: Antiproliferative activity against human HEC-1B cell line assessed as reduction in cell viability
SPEC-2 [9] = test: Induction of cell death in human SPEC-2 cells assessed as increase in caspase-9 by measuring fold change using […] as substrate at 5 uM incubated for 24 hrs followed by substrate addition and measured after 30 mins by ELISA analysis; type: functional; conditions: time 1470 min, 24.5 h
USPC-ARK-1 [10] = test: Induction of apoptosis in human USPC-ARK-1 cells assessed as decrease in mitochondrial membrane potential at 5 uM incubated for 8 hrs by JC-1 fluorescent probe based plate reader analysis; type: functional; parameters: scale not given: the % may be the effect or the level left
SPEC-2 [11] = test: Inhibition of cell invasion in serum-starved human SPEC-2 cells at 0.05 to 5 uM incubated for 3.5 hrs by calcein AM staining based plate reader analysis relative to control; type: functional; conditions: dose 0.05-5 µM
SPEC-2 [12] = test: Antiproliferative activity against human SPEC-2 cells assessed as reduction in cell viability incubated for 72 hrs by MTT assay; type: functional, cell-based; conditions: SPEC-2, 72 h
USPC-ARK-1 [13] = test: Induction of cell death in human USPC-ARK-1 cells assessed as increase in caspase-9 by measuring fold change using […] as substrate at 5 uM incubated for 24 hrs followed by substrate addition and measured after 30 mins by ELISA analysis; type: functional; conditions: time 1470 min, 24.5 h
USPC-ARK-1 [14] = test: Antiproliferative activity against human USPC-ARK-1 cells assessed as reduction in cell viability incubated for 72 hrs by MTT assay; type: functional, cell-based; conditions: USPC-ARK-1, 72 h
Ishikawa [15] = test: Antitumor activity against human Ishikawa cells xenografted in LKB1fl/flp53fl/fl mouse assessed as tumor growth inhibition (reference value: 68 %); type: functional
USPC-ARK-1 [16] = test: Induction of cell death in human USPC-ARK-1 cells assessed as increase in cleaved caspase-3 by measuring fold change using Ac-DEVD-AMC as substrate at 5 uM incubated for 24 hrs followed by substrate addition and measured after 30 mins by ELISA analysis; type: functional; conditions: time 1470 min, 24.5 h
SPEC-2 [17] = test: Induction of cell death in human SPEC-2 cells assessed as increase in cleaved caspase-3 by measuring fold change using Ac-DEVD-AMC as substrate at 5 uM incubated for 24 hrs followed by substrate addition and measured after 30 mins by ELISA analysis; type: functional; conditions: time 1470 min, 24.5 h
USPC-ARK-1 [18] = test: Inhibition of cell invasion in serum-starved human USPC-ARK-1 cells at 0.05 to 5 uM incubated for 3.5 hrs by calcein AM staining based plate reader analysis relative to control; type: functional; conditions: dose 0.05-5 µM
ECC-1 [19] = test: Antitumor activity against human ECC-1 cells xenografted in LKB1fl/flp53fl/fl mouse assessed as tumor growth inhibition (reference value: 68 %); type: functional
USPC-ARK-1 [20] = test: Induction of cell death in human USPC-ARK-1 cells assessed as increase in ROS level at 5 uM incubated for 24 hrs by DCFH-DA based microplate reader analysis relative to control; type: functional
SPEC-2 [21] = test: Induction of cell death in human SPEC-2 cells assessed as increase in ROS level at 5 uM incubated for 24 hrs by DCFH-DA based microplate reader analysis relative to control; type: functional
SPEC-2 [22] = test: Induction of apoptosis in human SPEC-2 cells assessed as decrease in mitochondrial membrane potential at 5 uM incubated for 8 hrs by JC-1 fluorescent probe based plate reader analysis; type: functional; parameters: scale not given: the % may be the effect or the level left
ECC-1 [23] = test: Antiproliferative activity against human ECC-1 cells assessed as reduction in cell viability; type: functional, cell-based
ECC-1 [24] = test: Antiproliferative activity against human ECC-1 cells assessed as combination index incubated for 48 hrs in presence of Metformin by MTT assay; type: functional
Ishikawa [25] = test: Antiproliferative activity against human Ishikawa cells assessed as combination index incubated for 48 hrs in presence of Metformin by MTT assay; type: functional
Ishikawa [26] = test: Induction of apoptosis in human Ishikawa cell line assessed as fold change incubated for 48 hrs; type: functional
RL95-2 = test: Induction of apoptosis in human RL95-2 cells assessed as fold change incubated for 48 hrs; type: functional
HEC-1B cell line [27] = test: Induction of apoptosis in human HEC-1B cell line assessed as fold change incubated for 48 hrs; type: functional

For `CC(C)CC(/N=C/c1cccc(B(O)O)c1)C(=O)O` (stereo not drawn), the Activity (Ishikawa [1]) was 88.3%.

`OB(O)c1ccc(/C=N/c2cccc3cccc(/N=C/c4ccc(B(O)O)cc4)c23)cc1` gave an Activity (Ishikawa [2]) of 72%.

`CC(C)CC(/N=C/c1ccc(B(O)O)cc1)C(=O)O` (stereo not drawn) gave an Activity (Ishikawa [1]) of 76%.

Compound `OB(O)c1cccc(/C=N/c2ccc(-c3ccc(/N=C/c4cccc(B(O)O)c4)cc3)cc2)c1` has an Activity (Ishikawa [2]) of 84%.

`O=C(O)CSC[C@H](/N=C/c1ccc(B(O)O)cc1)C(=O)O` gave an Activity (Ishikawa [3]) of 54% and an Activity (Ishikawa [2]) of 49%.

`O=C(O)c1ccc(C(=O)O)c(/N=C/c2ccc(B(O)O)cc2)c1` was tested, and the Activity (Ishikawa [1]) was 72%.

Compound `O=C(O)CN=C(/N=C/c1ccc(B(O)O)cc1)/N=C/c1ccc(B(O)O)cc1` has an Activity (Ishikawa [1]) of 18%.

Work on `OB(O)c1ccc(/C=N/c2ccc(-c3ccc(/N=C/c4ccc(B(O)O)cc4)cc3)cc2)cc1` yielded an Activity (Ishikawa [1]) of 14%.

In the case of `CCN(CC)CCCOc1ccc(-n2c3c(c4ccccc4c2=O)C(=O)c2ccccc2-3)cc1`, the IC50 (Ishikawa [4]) is reported as 3.08 nM.

Compound `O=c1[nH]cc(F)c(=O)[nH]1` [FLUOROURACIL] has an IC50 (Ishikawa [5]) greater than 100000 nM.

Compound `CN(C)C(=N)NC(=N)N` [METFORMIN] has a CI (Ishikawa [6]) of less than 1 and a CI (ECC-1 [7]) of less than 1.

With `NC(=O)c1cccc2cn(-c3ccc([C@@H]4CCCNC4)cc3)nc12` [NIRAPARIB] the IC50 (Ishikawa [5]) was 24 nM and the IC50 (HEC-1B cell line [8]) was 127 nM.

`O=C1C2=C(CCN(Cc3ccccc3)C2)N2CCN=C2N1Cc1ccc(F)cc1F` [ONC-206] was tested, and the “fold change (FC)” value (SPEC-2 [9]) was 1.4, the Activity (USPC-ARK-1 [10]) was 16% and the “inhibition (INH)” value (SPEC-2 [11]) was 34%. For the same compound, the IC50 (SPEC-2 [12]) was 240 nM, the “fold change (FC)” value (USPC-ARK-1 [13]) was 1.5 and the IC50 (USPC-ARK-1 [14]) was 330 nM. For the same compound, the TGI (Ishikawa [15]) was 73%, the “fold change (FC)” value (USPC-ARK-1 [16]) was 1.7 and the “fold change (FC)” value (SPEC-2 [17]) was 1.4. For the same compound, the “inhibition (INH)” value (USPC-ARK-1 [18]) was 26.6%, the TGI (ECC-1 [19]) was 73% and the Activity (USPC-ARK-1 [20]) was 83%. For the same compound, the Activity (SPEC-2 [21]) was 83% and the Activity (SPEC-2 [22]) was 16%.

Work on `CC(=O)O[C@H]1C(=O)[C@@]2(C)[C@H]([C@H](OC(=O)c3ccccc3)[C@]3(O)C[C@H](OC(=O)[C@H](O)[C@@H](NC(=O)c4ccccc4)c4ccccc4)C(C)=C1C3(C)C)[C@]1(OC(C)=O)CO[C@@H]1C[C@@H]2O` [PACLITAXEL] yielded an IC50 (Ishikawa [5]) of 0.5 nM, an IC50 (ECC-1 [23]) of 0.1 nM and a CI (ECC-1 [24]) of less than 1. For the same compound, the CI (Ishikawa [25]) was less than 1.

For `CCC(C)(C)C(=O)O[C@H]1C[C@@H](C)C=C2C=C[C@H](C)[C@H](CC[C@@H]3C[C@@H](O)CC(=O)O3)[C@H]21` [SIMVASTATIN], the IC50 (Ishikawa [5]) was roughly 17000 nM, the IC50 (ECC-1 [23]) was roughly 15000 nM and the “fold change (FC)” value (Ishikawa [26]) was 127. For the same compound, the “fold change (FC)” value (RL95-2) was 354 and the “fold change (FC)” value (HEC-1B cell line [27]) was 88.
